BigSolDB 2.1

Molecule O=C(O)/C=C/C(=O)O has a solubility (mole fraction) (in acetone, 279 K) of 0.00344, a solubility (mole fraction) (in acetone, 285 K) of 0.00419 and a solubility (mole fraction) (in acetone, 291 K) of 0.00498. The solubility (mole fraction) (in acetone, 297 K) was 0.00583, the solubility (mole fraction) (in acetone, 303 K) was 0.00673 and the solubility (mole fraction) (in acetone, 309 K) was 0.00768. It also gave a solubility (mole fraction) (in acetone, 315 K) of 0.00867, a solubility (mole fraction) (in acetone, 321 K) of 0.00972 and a solubility (mole fraction) (in acetone, 327 K) of 0.0108. It also gave a solubility (mole fraction) (in acetone, 333 K) of 0.012, a solubility (mole fraction) (in ethanol, 279 K) of 0.0126 and a solubility (mole fraction) (in ethanol, 285 K) of 0.014. The solubility (mole fraction) (in ethanol, 291 K) was 0.0157, the solubility (mole fraction) (in ethanol, 297 K) was 0.0178 and the solubility (mole fraction) (in ethanol, 303 K) was 0.0205. It also gave a solubility (mole fraction) (in ethanol, 309 K) of 0.0233, a solubility (mole fraction) (in ethanol, 315 K) of 0.0267 and a solubility (mole fraction) (in ethanol, 321 K) of 0.0305. It also gave a solubility (mole fraction) (in ethanol, 327 K) of 0.0344, a solubility (mole fraction) (in ethanol, 333 K) of 0.0383 and a solubility (mole fraction) (in ethanol, 343 K) of 0.0451. The solubility (mole fraction) (in isopropanol, 279 K) was 0.0109, the solubility (mole fraction) (in isopropanol, 285 K) was 0.0138 and the solubility (mole fraction) (in isopropanol, 291 K) was 0.0169. For the same molecule, the solubility (mole fraction) (in isopropanol, 297 K) was 0.0202, the solubility (mole fraction) (in isopropanol, 303 K) was 0.0236 and the solubility (mole fraction) (in isopropanol, 309 K) was 0.0272. For the same molecule, the solubility (mole fraction) (in isopropanol, 315 K) was 0.031, the solubility (mole fraction) (in isopropanol, 321 K) was 0.0349 and the solubility (mole fraction) (in isopropanol, 327 K) was 0.0391. For the same molecule, the solubility (mole fraction) (in isopropanol, 333 K) was 0.0435, the solubility (mole fraction) (in isopropanol, 342 K) was 0.0538 and the solubility (mole fraction) (in isopropanol, 351 K) was 0.0656. For the same molecule, the solubility (mole fraction) (in n-propanol, 279 K) was 0.00847, the solubility (mole fraction) (in n-propanol, 285 K) was 0.0103 and the solubility (mole fraction) (in n-propanol, 291 K) was 0.0122. For the same molecule, the solubility (mole fraction) (in n-propanol, 297 K) was 0.0143, the solubility (mole fraction) (in n-propanol, 303 K) was 0.0165 and the solubility (mole fraction) (in n-propanol, 309 K) was 0.0189. For the same molecule, the solubility (mole fraction) (in n-propanol, 315 K) was 0.0215, the solubility (mole fraction) (in n-propanol, 321 K) was 0.0243 and the solubility (mole fraction) (in n-propanol, 327 K) was 0.0274. It also gave a solubility (mole fraction) (in n-propanol, 333 K) of 0.0306, a solubility (mole fraction) (in n-propanol, 339 K) of 0.0355 and a solubility (mole fraction) (in n-propanol, 345 K) of 0.0398. The solubility (mole fraction) (in n-propanol, 351.8 K) was 0.0486, the solubility (mole fraction) (in water, 279 K) was 0.000136 and the solubility (mole fraction) (in water, 285 K) was 0.000435. For the same molecule, the solubility (mole fraction) (in water, 291 K) was 0.000813, the solubility (mole fraction) (in water, 297 K) was 0.00125 and the solubility (mole fraction) (in water, 303 K) was 0.00171. For the same molecule, the solubility (mole fraction) (in water, 309 K) was 0.00221, the solubility (mole fraction) (in water, 315 K) was 0.00265 and the solubility (mole fraction) (in water, 321 K) was 0.00328. The solubility (mole fraction) (in water, 327 K) was 0.00415, the solubility (mole fraction) (in water, 333 K) was 0.00541 and the solubility (mole fraction) (in water, 339 K) was 0.00624. For the same molecule, the solubility (mole fraction) (in water, 353 K) was 0.00884.
